Active and inactive are the calls of the source.
How the values were obtained:
[1] = biological target: Heat shock protein HSP 90-alpha (Homo sapiens, UniProt P07900); assay type: functional, organism-based
[2] = Luminescence Cell-Based Dose Response HTS to Identify Inhibitors of 5'UTR Stem-Loop Driven Prion Protein mRNA Translation in H4 Neuroglioblastoma Cells. [Related pubchem assays: 1827 (Project Summary), 1813 (Primary HTS)]; assay type: functional
[3] = biological target: T1, Apoptotic protease-activating factor 1 (Homo sapiens, UniProt O14727); assay type: functional
T1 sequence (O14727 whole entry): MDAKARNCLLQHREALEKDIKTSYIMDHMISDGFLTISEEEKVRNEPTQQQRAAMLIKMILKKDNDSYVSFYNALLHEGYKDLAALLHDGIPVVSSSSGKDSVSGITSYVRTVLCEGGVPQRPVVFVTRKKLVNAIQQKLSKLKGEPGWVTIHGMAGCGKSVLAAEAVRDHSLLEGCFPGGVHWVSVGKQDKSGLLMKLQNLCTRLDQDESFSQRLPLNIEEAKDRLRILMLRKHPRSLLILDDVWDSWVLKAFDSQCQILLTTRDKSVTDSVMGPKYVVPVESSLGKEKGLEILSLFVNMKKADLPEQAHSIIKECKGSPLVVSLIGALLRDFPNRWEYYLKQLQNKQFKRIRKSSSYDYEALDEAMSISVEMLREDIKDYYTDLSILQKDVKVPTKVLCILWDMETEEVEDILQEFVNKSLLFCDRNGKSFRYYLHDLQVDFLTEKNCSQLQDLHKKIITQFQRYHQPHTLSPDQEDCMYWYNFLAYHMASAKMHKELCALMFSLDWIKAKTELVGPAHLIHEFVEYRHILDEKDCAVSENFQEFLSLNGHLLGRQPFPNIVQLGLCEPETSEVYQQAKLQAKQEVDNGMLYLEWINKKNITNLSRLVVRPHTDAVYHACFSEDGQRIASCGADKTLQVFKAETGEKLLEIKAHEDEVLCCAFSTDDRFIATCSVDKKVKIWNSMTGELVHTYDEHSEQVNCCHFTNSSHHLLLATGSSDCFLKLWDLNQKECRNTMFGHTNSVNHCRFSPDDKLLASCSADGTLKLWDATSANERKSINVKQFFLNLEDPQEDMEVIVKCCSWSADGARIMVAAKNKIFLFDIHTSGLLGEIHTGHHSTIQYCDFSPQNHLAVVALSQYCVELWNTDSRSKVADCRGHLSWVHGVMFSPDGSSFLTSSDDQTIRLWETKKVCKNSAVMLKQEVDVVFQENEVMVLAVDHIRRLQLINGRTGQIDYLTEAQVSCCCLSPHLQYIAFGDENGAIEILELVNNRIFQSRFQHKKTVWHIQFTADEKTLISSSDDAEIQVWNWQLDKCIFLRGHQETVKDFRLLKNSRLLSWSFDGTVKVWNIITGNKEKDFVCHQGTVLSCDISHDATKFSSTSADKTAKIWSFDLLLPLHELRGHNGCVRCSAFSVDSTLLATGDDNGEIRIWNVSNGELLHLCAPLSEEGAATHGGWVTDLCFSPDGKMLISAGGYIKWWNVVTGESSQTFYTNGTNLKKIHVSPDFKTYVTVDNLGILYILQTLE

Troponin, cardiac muscle = Troponin, cardiac muscle (Homo sapiens, UniProt P19429+P45379+P63316); test: compounds desensitizing RTF to calcium – biochemical, fluorescence, cardiac regulated thin filaments, triplicate IC50, dose response (AID 504742); assay type: protein-complex assay
[4] = biological target: Eukaryotic translation initiation factor 4E (Mus musculus, UniProt P63073); test: blockers of eIF4G binding by eIF4E – biochemical, TR-FRET, dose response (AID 855); assay type: functional;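 further: potency for disrupting eIF4E binding to eIF4GI seen as loss of FRET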
[5] = biological target: T2, Tyrosyl-DNA phosphodiesterase 2 (Homo sapiens, UniProt O95551); test: potency against TDP2 phosphodiesterase activity – biochemical, epi absorbance, IC50, dose response (AID 743297)
T2 sequence (O95551 whole entry): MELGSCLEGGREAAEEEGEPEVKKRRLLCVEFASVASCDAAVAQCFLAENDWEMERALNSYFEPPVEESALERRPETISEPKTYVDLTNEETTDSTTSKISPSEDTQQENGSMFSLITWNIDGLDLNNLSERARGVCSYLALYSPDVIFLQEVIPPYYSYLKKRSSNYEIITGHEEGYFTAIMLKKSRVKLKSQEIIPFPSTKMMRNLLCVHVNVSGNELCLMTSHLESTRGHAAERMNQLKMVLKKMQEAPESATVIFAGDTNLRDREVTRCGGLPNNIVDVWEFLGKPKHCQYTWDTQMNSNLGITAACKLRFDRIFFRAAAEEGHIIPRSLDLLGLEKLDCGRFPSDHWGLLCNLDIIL

[6] = biological target: Serine/threonine-protein kinase PLK3 (Homo sapiens, UniProt Q9H4B4); assay type: functional
[7] = biological target: Ribosomal protein S6 kinase beta-1 (Homo sapiens, UniProt P23443); assay type: functional;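 further: measured as one member of a kinome-wide profiling panel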
[8] = biological target: Serine/threonine-protein kinase D3 (Homo sapiens, UniProt O94806); assay type: functional;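 further: determined within a kinase panel screen, with PRKCN as the panel member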
[9] = biological target: Mast/stem cell growth factor receptor Kit (Homo sapiens, UniProt P10721); assay type: functional;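 further: KIT entry within a kinase panel assay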
[10] = biological target: Mitogen-activated protein kinase 9 (Homo sapiens, UniProt P45984); assay type: functional;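 further: value from a kinome panel profiling assay, MAPK9 panel entry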
[11] = biological target: Receptor-type tyrosine-protein kinase FLT3 (Homo sapiens, UniProt P36888); assay type: functional;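 further: FLT3 was tested as one member of a kinome-wide kinase panel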
[12] = biological target: Tyrosine-protein kinase ABL1 (Homo sapiens, UniProt P00519); assay type: functional
[13] = biological target: Serine/threonine-protein kinase Nek4 (Homo sapiens, UniProt P51957); assay type: functional
Focal adhesion kinase 1 = Focal adhesion kinase 1 (Homo sapiens, UniProt Q05397); assay type: functional;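 further: measured as one member of a kinome panel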
[14] = biological target: Interleukin-1 receptor-associated kinase 4 (Homo sapiens, UniProt Q9NWZ3); assay type: functional
[15] = biological target: Cyclin-dependent kinase 9 (Homo sapiens, UniProt P50750); assay type: functional;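 further: value from the CDK9 entry of a kinome-spanning kinase panel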
[16] = biological target: Serine/threonine-protein kinase MRCK alpha (Homo sapiens, UniProt Q5VT25); assay type: functional
SUMO E1/E2 = SUMO E1/E2 (Homo sapiens, UniProt P63279+Q9UBE0+Q9UBT2); test: SAR analysis of SUMOylation using HTRF in an in-Vitro dose response assay. [Related pubchem assays (depositor defined):AID2006, AID2011, AID2018, AID2069, AID2658]; assay type: functional
Chain of SUMO E1/E2 (Q9UBE0 whole entry): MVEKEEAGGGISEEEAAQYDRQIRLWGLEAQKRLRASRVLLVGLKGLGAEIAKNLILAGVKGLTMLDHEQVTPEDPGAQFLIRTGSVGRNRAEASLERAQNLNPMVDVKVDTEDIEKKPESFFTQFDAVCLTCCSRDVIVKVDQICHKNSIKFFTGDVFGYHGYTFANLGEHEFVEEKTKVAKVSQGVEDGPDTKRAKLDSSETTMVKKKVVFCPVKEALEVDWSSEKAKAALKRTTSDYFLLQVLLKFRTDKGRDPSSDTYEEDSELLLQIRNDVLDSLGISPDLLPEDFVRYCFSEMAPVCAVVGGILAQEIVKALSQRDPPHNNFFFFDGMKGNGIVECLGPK
Chain of SUMO E1/E2 (Q9UBT2 whole entry): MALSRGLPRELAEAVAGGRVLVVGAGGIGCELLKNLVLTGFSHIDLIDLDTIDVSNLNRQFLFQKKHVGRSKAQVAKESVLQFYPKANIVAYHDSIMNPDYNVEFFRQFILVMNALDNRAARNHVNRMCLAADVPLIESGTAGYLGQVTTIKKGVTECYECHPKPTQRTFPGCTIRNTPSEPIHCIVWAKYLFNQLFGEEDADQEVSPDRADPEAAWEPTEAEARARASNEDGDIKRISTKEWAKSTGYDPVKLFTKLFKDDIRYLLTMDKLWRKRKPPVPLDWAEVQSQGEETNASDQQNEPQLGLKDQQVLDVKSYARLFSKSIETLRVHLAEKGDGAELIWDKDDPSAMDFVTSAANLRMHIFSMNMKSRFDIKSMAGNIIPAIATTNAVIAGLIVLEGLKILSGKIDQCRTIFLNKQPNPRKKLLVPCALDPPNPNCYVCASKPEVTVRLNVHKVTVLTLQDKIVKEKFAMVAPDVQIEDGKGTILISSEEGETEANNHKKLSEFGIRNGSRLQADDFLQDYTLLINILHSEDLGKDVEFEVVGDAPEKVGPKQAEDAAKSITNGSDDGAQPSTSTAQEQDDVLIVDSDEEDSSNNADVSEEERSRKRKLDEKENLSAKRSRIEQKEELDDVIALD
Chain of SUMO E1/E2 (P63279 whole entry): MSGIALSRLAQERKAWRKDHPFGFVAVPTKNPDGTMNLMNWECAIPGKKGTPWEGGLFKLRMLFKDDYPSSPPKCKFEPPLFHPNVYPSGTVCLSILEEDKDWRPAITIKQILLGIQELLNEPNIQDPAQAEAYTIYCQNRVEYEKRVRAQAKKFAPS

Chain of Serine/threonine-protein kinase MRCK alpha (Q5VT25 whole entry): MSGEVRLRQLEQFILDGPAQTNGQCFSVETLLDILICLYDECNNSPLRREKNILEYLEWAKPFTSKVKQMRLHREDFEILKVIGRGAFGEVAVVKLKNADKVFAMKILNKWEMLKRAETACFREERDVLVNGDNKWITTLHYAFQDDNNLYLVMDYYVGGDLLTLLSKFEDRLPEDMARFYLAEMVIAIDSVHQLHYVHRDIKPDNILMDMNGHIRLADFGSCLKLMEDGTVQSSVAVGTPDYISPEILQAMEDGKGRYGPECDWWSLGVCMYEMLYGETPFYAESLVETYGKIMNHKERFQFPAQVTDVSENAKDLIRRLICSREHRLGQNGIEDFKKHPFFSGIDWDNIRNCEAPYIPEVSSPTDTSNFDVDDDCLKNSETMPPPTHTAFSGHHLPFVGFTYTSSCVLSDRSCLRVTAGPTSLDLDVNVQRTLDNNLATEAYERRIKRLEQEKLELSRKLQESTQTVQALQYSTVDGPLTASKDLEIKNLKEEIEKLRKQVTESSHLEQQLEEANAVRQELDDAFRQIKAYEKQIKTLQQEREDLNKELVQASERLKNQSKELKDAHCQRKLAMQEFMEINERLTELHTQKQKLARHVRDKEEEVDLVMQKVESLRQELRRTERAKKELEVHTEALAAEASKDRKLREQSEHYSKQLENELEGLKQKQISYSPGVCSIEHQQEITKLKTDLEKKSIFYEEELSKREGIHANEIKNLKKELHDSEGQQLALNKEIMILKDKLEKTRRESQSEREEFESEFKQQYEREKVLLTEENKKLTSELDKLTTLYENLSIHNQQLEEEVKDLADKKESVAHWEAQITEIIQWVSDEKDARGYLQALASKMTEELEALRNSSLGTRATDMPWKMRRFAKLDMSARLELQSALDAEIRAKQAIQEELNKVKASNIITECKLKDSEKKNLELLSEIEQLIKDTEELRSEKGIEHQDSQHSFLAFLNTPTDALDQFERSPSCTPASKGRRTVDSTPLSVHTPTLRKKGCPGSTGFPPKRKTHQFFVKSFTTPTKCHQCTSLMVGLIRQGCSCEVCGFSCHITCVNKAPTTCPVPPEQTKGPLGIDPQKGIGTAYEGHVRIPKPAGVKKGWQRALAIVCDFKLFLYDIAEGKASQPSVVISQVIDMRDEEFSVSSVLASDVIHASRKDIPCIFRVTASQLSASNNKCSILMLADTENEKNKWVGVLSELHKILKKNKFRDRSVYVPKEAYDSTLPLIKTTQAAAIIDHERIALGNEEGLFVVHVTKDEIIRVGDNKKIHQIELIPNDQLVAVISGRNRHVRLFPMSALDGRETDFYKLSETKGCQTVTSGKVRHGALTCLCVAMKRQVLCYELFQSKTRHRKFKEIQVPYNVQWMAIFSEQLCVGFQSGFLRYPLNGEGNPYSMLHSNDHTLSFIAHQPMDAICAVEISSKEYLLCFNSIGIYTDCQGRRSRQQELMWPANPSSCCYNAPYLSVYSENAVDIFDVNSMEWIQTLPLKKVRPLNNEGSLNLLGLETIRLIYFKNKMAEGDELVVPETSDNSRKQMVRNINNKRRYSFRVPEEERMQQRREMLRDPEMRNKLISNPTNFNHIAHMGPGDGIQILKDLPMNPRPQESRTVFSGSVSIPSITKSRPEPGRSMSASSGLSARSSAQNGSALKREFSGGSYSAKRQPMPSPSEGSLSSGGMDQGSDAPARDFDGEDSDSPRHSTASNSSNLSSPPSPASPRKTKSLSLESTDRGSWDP
Chain of Cyclin-dependent kinase 9 (P50750 whole entry): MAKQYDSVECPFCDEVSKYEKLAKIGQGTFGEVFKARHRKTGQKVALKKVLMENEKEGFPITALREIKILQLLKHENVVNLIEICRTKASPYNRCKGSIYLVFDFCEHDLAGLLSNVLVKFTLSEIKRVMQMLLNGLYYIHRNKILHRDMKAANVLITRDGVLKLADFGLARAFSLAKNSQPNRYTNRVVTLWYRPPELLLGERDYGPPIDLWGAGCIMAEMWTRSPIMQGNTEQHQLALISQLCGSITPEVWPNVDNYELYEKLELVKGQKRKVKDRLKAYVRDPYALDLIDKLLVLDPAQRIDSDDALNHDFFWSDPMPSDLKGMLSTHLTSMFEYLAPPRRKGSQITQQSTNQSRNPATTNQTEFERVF
Chain of Serine/threonine-protein kinase PLK3 (Q9H4B4 whole entry): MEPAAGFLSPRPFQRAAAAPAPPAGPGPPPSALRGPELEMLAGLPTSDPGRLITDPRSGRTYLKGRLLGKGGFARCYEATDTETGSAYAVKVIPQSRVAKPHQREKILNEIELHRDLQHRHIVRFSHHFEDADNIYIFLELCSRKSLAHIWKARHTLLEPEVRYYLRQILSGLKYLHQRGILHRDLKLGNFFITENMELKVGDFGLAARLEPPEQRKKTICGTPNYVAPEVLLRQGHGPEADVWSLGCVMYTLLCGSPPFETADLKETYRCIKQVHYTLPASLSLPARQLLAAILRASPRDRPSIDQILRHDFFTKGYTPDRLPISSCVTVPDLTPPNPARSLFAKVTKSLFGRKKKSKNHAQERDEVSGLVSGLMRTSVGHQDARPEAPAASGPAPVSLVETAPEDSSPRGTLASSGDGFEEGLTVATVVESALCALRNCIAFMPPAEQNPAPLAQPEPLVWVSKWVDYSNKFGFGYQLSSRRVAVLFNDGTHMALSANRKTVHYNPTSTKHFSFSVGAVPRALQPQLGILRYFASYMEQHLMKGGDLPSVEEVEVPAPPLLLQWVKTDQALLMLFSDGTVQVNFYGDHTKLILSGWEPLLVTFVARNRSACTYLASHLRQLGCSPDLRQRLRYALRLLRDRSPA
Chain of Interleukin-1 receptor-associated kinase 4 (Q9NWZ3 whole entry): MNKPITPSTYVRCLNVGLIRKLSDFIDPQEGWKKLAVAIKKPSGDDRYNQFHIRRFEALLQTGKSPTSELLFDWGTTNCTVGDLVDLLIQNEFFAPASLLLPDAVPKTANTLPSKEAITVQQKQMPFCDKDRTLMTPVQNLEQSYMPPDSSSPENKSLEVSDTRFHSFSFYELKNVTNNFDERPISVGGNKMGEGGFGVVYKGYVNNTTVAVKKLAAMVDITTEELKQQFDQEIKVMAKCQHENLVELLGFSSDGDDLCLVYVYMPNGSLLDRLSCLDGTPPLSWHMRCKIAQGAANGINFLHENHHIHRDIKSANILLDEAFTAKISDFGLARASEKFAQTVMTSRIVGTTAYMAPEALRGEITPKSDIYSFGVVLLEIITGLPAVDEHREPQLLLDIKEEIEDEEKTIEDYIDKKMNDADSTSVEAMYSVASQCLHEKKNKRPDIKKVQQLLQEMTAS
Chain of Eukaryotic translation initiation factor 4E (P63073 whole entry): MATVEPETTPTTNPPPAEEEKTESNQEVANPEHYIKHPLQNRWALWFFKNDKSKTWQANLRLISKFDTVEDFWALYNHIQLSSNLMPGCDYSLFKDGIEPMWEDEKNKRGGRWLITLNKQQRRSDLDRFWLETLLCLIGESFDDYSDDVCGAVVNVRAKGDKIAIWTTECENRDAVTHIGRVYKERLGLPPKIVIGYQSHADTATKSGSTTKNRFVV
Chain of Mitogen-activated protein kinase 9 (P45984 whole entry): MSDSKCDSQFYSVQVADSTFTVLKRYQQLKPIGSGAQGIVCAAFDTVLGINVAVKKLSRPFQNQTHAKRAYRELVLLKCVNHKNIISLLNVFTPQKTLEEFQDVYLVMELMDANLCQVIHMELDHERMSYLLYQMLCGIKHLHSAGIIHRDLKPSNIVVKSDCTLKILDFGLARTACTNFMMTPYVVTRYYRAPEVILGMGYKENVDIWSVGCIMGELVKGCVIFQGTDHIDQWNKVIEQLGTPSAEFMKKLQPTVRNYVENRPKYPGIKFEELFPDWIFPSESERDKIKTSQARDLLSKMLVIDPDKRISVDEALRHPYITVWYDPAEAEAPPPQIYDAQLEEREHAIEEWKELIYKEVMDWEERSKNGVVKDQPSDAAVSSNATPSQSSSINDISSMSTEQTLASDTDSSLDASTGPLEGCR

In the case of `Oc1ccc(N=Nc2c(O)ccc3ccccc23)cc1`, the AC50 [1] is reported as 5.61 µM (active).
In the case of `O=C(CCc1ccccc1)NNc1cc(N2CCCCC2)nc(N2CCCCC2)n1`, the EC50 [2] is reported as > 120 µM (not active) and the IC50 [3] is reported as 3.62 µM (active).
For `O=C(O)C1Nc2c(O)cc(Cl)c([N+](=O)[O-])c2C2C=CCC12` (centres undefined), the IC50 (Troponin, cardiac muscle) was 11 µM (inactive) and the IC50 [4] was 5.21 µM (active).
With `O=C1C=C(N2CCCCC2)c2ccccc2C1=O` the EC50 [2] was 8.27 µM (active), the IC50 [3] was 2.12 µM (active) and the IC50 [5] was 5.32 µM (active).
For `Cc1n[nH]c2ccc(-c3cncc(OCC(N)Cc4cccc(Cl)c4)c3)cc12` (centres undefined), the Ki [6] was > 7.94 µM (inactive), the Ki [7] was 0.0794 µM (active) and the Ki [8] was 0.00398 µM (active). For the same compound, the Ki [9] was > 1.26 µM (inactive), the Ki [10] was 3.98 µM (active) and the Ki [11] was 0.158 µM (active). The Ki [12] was > 0.631 µM (inactive), the Ki [13] was 0.251 µM (active) and the Ki (Focal adhesion kinase 1) was > 1.58 µM (inactive). The Ki [14] was 0.158 µM (active), the Ki [15] was 0.0631 µM (active) and the pKi [15] was 7.2. The Ki [16] was 0.00794 µM (active) and the pKi [16] was 8.1.
In the case of `CC(=O)NC1C(=O)N(CCN2CCOCC2)c2ccc(F)cc21` (centres undefined), the IC50 (SUMO E1/E2) is reported as 13.4 µM (active) and the IC50 [5] is reported as 33.4 µM (inactive).

— ChEMBL document CHEMBL1201862, “PubChem BioAssay data set” (2004)
